The test system of data set [1] is isolated rat liver cells. Put plainly: In vitro cytotoxicity: effects on metabolic competence of isolated rat liver cells. Type of data set: cell-based. The protocol:
The cytotoxicity of the compound of the invention was investigated in vitro by studying its effects on the metabolic competence of isolated rat liver cells. […] A 15% decrease in ATP levels was observed after 90 minutes at a concentration of 100µM.

Data set [2] deals with T1, ACAT (Homo sapiens, UniProt P35610).
T1 construct: Microsomal protein is therefore used as the source of both ACAT and cholesterol; endogenous in cells; host or cells: human embryo 407 intestinal epithelial cell line (microsomal fraction)
T1 sequence (P35610 1-550): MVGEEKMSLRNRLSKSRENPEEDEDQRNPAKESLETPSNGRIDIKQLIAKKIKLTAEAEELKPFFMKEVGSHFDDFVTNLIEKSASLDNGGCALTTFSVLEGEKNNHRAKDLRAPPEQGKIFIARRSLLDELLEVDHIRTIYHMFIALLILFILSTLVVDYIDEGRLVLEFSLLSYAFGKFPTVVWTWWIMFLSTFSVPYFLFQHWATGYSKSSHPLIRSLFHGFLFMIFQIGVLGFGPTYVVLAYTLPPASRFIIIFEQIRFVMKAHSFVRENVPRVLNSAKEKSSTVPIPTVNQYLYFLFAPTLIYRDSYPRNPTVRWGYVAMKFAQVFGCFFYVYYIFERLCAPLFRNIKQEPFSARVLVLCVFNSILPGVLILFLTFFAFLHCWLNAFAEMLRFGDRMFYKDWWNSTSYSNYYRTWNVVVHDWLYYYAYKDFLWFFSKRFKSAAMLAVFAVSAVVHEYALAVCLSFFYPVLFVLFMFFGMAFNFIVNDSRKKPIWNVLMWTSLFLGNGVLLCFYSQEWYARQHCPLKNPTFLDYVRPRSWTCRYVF
Put plainly: In vitro inhibition of ACAT (radiometric, [14C]oleoyl CoA substrate, microsomal protein). Type of data set: biochemical. Conditions: enzyme derived from human embryo 407 intestinal epithelial cell line, 37°C, pH 7.0, 4 minutes, read-out: IC₅₀ for ACAT inhibition. The protocol:
In vitro inhibition of ACAT
The in vitro esterification of cholesterol in the presence of ACAT and the test compound was assayed radiometrically using [¹⁴C]oleoyl CoA as substrate: [¹⁴C]oleoyl CoA + cholesterol → [¹⁴C]oleoyl cholesterol + CoASH [formula]
The enzyme is membrane-associated in vivo. Microsomal protein is therefore used as the source of both ACAT and cholesterol. The compound of the invention was tested against enzyme derived from human embryo 407 intestinal epithelial cell line.
[¹⁴C]Oleoyl CoA was incubated with microsomal protein at 37°C, pH 7.0, in the presence of various concentrations of the test compound. After 4 minutes, the reaction was stopped by the addition of ice-cold chloroform/methanol containing a known amount of [³H]oleoyl cholesterol to compensate for the loss of any [¹⁴C] product. A known volume of the resulting lower phase, which contains lipidic material from the reaction, was dried, redissolved in hexane containing unlabelled oleoyl cholesterol (TLC marker) and run on a quantitative TLC plate (silica gel). The oleoyl cholesterol spot was visualised (iodine vapour), removed from the TLC plate and its radioactivity measured by scintillation counting.
A plot of ACAT inhibitory activity vs concentration was prepared for the test compound and the corresponding IC₅₀ determined.

SMILES strings stand for the structures. pIC50: −log10 of the molar value.

Take `CCCCCCCNC(=O)Nc1c(F)cc(F)cc1CCc1ccc(CC(C)(C)C)cc1` [compound of the invention, 1-[2,4-difluoro-6-{2-[4-(2,2-dimethylpropyl)phenyl]ethyl}phenyl]-3-heptylurea]: in data set [1] (after 90 minutes at a concentration of 100µM), the “decrease in ATP levels” value amounted to 15%. Also, the effect on gluconeogenesis result in data set [1] (concentrations of up to 100µM) was “No effect”. Moreover, the pIC50 in data set [2] is 7.66.

These data come from patent publication EP0450660B1, “Anti-atherosclerotic diaryl compound” (THE WELLCOME FOUNDATION LIMITED, priority 1988, dated 1990).
